The text below walks through data of patent publication US11046701B2, “Salt of cetagliptin, preparation method thereof, pharmaceutical composition, and use thereof” (CGENETECH (SUZHOU, CHINA) CO., LTD., priority 2018, dated 2021).

A short description of data set [1]: Rough solubility of the amorphous phosphate in solvents. The format is physicochemical. The settings on record: thermodynamic from solid. The method, then:
The rough solubility of the amorphous phosphate prepared in Example 1 was measured. During the test, about 2 mg of the amorphous phosphate prepared in Example 1 was weighed and put into a 3 mL glass bottle, the solvents listed in the following Table 8 were added separately at an amount of 20 microliters/each time, and it was observed whether the sample was completely dissolved. If the sample was still not dissolved completely after 2.0 mL of the solvents was added, the test ended.

Data set [2] can be described thus: PK/PD experiment of ICR mice: plasma concentration. The settings on record: CD-1 (ICR), mouse, oral dose 3 mg/kg. The format is in vivo, CD-1 (ICR) mice. The procedure: (§1) Experimental animals: CD-1 (ICR) mice aged for 4 weeks and weighed for about 18-22 g.
(§2) Grouping and administration scheme: the mice were fed adaptively, randomly grouped according to the weight on the day before experiment, and fasted overnight. […] After the experimental grouping, the group provided separately for detecting the initial basic value of DPPIV was carried out blood sampling, and other animals were intragastrically administrated with the drug at an administration volume of 10 mL/kg, the blood was sampled after the administration, and all other animals were stimulated with glucose administration; the blood was sampled at 20 min, 40 min, 60 min and 120 min after the glucose administration, respectively, and the plasma concentration and the DPPIV activity were detected by using plasma.
Research on pharmacodynamics-plasma concentration correlation: blood samples were collected at time points of 1 h, 1.33 h, 1.67 h, 2 h and 3 h after administration, and the plasma concentration was measured. The drug exposure value (AUCeff0-3h) of the DPPIV-P1 increased with the increase of dose, which was 16.09 ng·h/mL, 52.65 ng·h/mL, 162.3 ng·h/mL and 542.28 ng·h/mL, respectively.

The nature of data set [3]: Weight of ICR mice of each group. The format is in vivo, CD-1 (ICR) mice. The conditions noted are these: individual animals, 3 mg/kg group, 3 mg/kg. The procedure:
as §1, §2

For data set [4], the system named is DIO mice. Nature of the data set: Long-term administration on DIO mice: fasting blood glucose. The format is in vivo. The conditions noted are these: for Fasting blood glucose: 30 mg/kg daily intragastric.
Method: (§3) A solution with a certain concentration was prepared from the crystal form B of the phosphate, and the administration volume was 10 mL/kg.
(§4) Experimental animals: C57BL16 mice aged for 5 weeks and weighed for about 13-16 g.
(§5) Grouping and administration scheme: the mice were fed adaptively and divided into a normal control group and a model group which were fed with high-fat feed (Research diets, D 12492). When the fasting blood glucose of the mice was greater than or equal to 7 mM, it was considered that the mice had become DIO mice. The DIO mice could be selected for the hypoglycemic effect test. The DIO mice were stratified and randomly grouped according to the blood glucose and the weight. […] The weight and the fasting blood glucose were measured weekly; the food amount, the remaining food amount and the food intake were recorded; the mice were fasted overnight at the end of administration, the blood was sampled, and the free fatty acid (NEFA), total cholesterol (TCHO), triglyceride (TG), insulin and DPPIV activity were measured by using serum.
Data set [5] relates to DIO mice. In words: Long-term administration on DIO mice: serum metabolic parameters (NEFA, TCHO, TG, insulin). The conditions noted are these: 30 mg/kg, end of long-term administration. The format is in vivo, C57BL16 mice. The source says: Experimental animals: […] Table 18 was a total data table of the metabolic parameters.
A short description of data set [6]: Long-term administration on DIO mice: weight, food intake, tolerance.
Method: as §3, §4, §5
Data set [7] in a line: XRPD of phosphate crystal form A after heating. The format is physicochemical. The conditions noted are these: heated for 48 h at 50° C. From the text: After detection, the obtained solid was the crystal form A of phosphate, its XRPD data was shown in Table 9 below, its XRPD pattern was shown in FIG. 4, and its TGA chart and DSC chart were shown in FIG. 5. […] (peak temperatures) before decomposition.

In general, solubility refers to the dissolved amount per volume that the medium holds.

Values after ≈ are worked out from the molar mass of the structure shown. Values joined by “and” are separate entries in the source; they are usually repeats but may differ in a detail not shown here. Identical values can stand only once.

`C[C@@H]1c2cnc(C(F)(F)F)n2CCN1C(=O)C[C@H](N)Cc1cc(F)c(F)cc1F` [Example 1, (8R)-7-[(3R)-3-amino-1-oxo-4-(2,4,5-trifluorophenyl)butyl]-5,6,7,8-tetrahydro-8-methyl-3-(trifluoromethyl)imidazo[1,5-a]pyrazine]: the solubility in data set [1] (1,4-Dioxane, organic solvent or mixture) was 2.7 to 2.9 mg/mL (≈ 6.42 to 6.9 mM); in data set [1] (2-MeTHF, organic solvent or mixture) it was 38.3 to 57.5 mg/mL (≈ 91.1 to 137 mM); in data set [1] (ACN, organic solvent or mixture), 57.5 to 115 mg/mL (≈ 137 to 274 mM); in data set [1] (Acetic acid, organic solvent or mixture) it was < 54 mg/mL; in data set [1] (Acetone, organic solvent or mixture), 47.5 to 95 mg/mL (≈ 113 to 226 mM); in data set [1] (CHCl3, organic solvent or mixture) it was < 1.3 mg/mL. The solubility in data set [1] (DCM, organic solvent or mixture) is < 1.1 mg/mL; in data set [1] (DMF, organic solvent or mixture) it was < 42 mg/mL; in data set [1] (DMSO, organic solvent or mixture), 46 to 115 mg/mL (≈ 109 to 274 mM); in data set [1] (EtOAc, organic solvent or mixture) it was < 1.1 mg/mL; in data set [1] (EtOH, organic solvent or mixture) it was 57.5 to 115 mg/mL (≈ 137 to 274 mM); in data set [1] (Heptane, organic solvent or mixture), < 1.3 mg/mL. Besides, the solubility is < 1.2 mg/mL in data set [1] (Hexane, organic solvent or mixture); 38.3 to 57.5 mg/mL (≈ 91.1 to 137 mM) in data set [1] (IPA, organic solvent or mixture); < 1.1 mg/mL in data set [1] (IPAc, organic solvent or mixture); 72.5 to 145 mg/mL (≈ 172 to 345 mM) in data set [1] (MEK, organic solvent or mixture); < 1 mg/mL in data set [1] (MIBK, organic solvent or mixture); < 0.9 mg/mL in data set [1] (MTBE, organic solvent or mixture). Further, the solubility in data set [1] (MeOH, organic solvent or mixture) was 67.5 to 135 mg/mL (≈ 161 to 321 mM); in data set [1] (NMP, organic solvent or mixture) it was 20 to 40 mg/mL (≈ 47.6 to 95.2 mM); in data set [1] (THF, organic solvent or mixture), 46 to 115 mg/mL (≈ 109 to 274 mM); in data set [1] (Toluene, organic solvent or mixture), < 1 mg/mL; in data set [1] (cyclohexanol, organic solvent or mixture), < 1 mg/mL; in data set [1] (isoamyl alcohol, organic solvent or mixture), 10 to 13.3 mg/mL (≈ 23.8 to 31.6 mM). Besides, the solubility in data set [1] (isobutyl alcohol, organic solvent or mixture) was 3.8 to 4.7 mg/mL (≈ 9.04 to 11.2 mM); in data set [1] (n-amyl alcohol, organic solvent or mixture), 6.8 to 8.5 mg/mL (≈ 16.2 to 20.2 mM); in data set [1] (n-butyl alcohol, organic solvent or mixture), 60 to 120 mg/mL (≈ 143 to 285 mM); in data set [1] (organic solvent or mixture, 1- Octanol), < 0.9 mg/mL; in data set [1] (sec-butyl alcohol, organic solvent or mixture), < 1 mg/mL; in data set [1] (water, H2O) it was 21 to 42 mg/mL (≈ 50 to 99.9 mM).

`N[C@@H](CC(=O)N1CCn2c(nnc2C(F)(F)F)C1)Cc1cc(F)c(F)cc1F` [Sitagliptin phosphate, reference compound] came in with a concentration at 1 h in data set [2] (1 hour) of 184 ± 10.2 ng/mL. Besides, the concentration at 1.33 h in data set [2] (1.33 hours) was 159 ± 46.6 ng/mL. Also, the concentration at 1.67 h in data set [2] (1.67 hours) amounted to 152 ± 15.1 ng/mL. Also, the concentration at 2 h in data set [2] (2 hours) was determined as 142 ± 19.6 ng/mL. Further, in data set [2] (3 hours), the concentration at 3 h amounted to 97.9 ± 35.5 ng/mL. In data set [2] (read-out: Drug exposure (AUCeff0-3 h)), the AUC amounted to 370 ng·h/mL. Further, the weight in data set [3] is 24.0 (3×) and 26.0 (2×) and 25.1 (2×) and 25.0 and 24.6 (2×) and 24.4 and 24.3 and 22.9 and 22.2 and 26.5; in data set [6] (30 mg/kg daily, D1), 37.2 ± 4.4 g; in data set [6] (30 mg/kg daily, D7), 35.3 ± 3.7 g; in data set [6] (30 mg/kg daily, D14) it was 34.4 ± 4.9 g; in data set [6] (30 mg/kg daily, D21), 37.2 ± 5.3 g; in data set [6] (30 mg/kg daily, D28) it was 39.5 ± 5.0 g. In data set [6] (30 mg/kg, total data table of metabolic parameters (end of experiment)), this compound gave a weight of 39.5 ± 5.0 g. The Fasting blood glucose is 8.3 ± 1.1 mmol/L in data set [4] (D 1); 6.8 ± 1.1 mmol/L in data set [4] (D 3); 8.0 ± 1.2 mmol/L in data set [4] (D 7); 8.5 ± 1.3 mmol/L in data set [4] (D 14); 8.9 ± 0.9 mmol/L in data set [4] (D 21); 8.6 ± 0.9 mmol/L in data set [4] (D 28). For the same compound, the “fasting blood glucose data after the drug was administrated for 28 days” value in data set [4] (individual animals, 30 mg/kg) was 8.9 and 8.3 and 8.4 and 7.8 and 9.1 and 8.2 and 9.8 and 7.9 (2×) and 8 and 10.8. Further, the “decrease of insulin compared with the model control group” value in data set [5] is listed as 58.3%. Further, the “decrease of total cholesterol (TCHO) compared with the model control group” value in data set [5] was 25.4%. For the same compound, the “Serum NEFA” value in data set [5] (fasted overnight) is 1.11 ± 0.13 mmol/L. Also, the “Serum TCHO” value in data set [5] (fasted overnight) was 3.99 ± 0.798 mmol/L. In addition, the “Serum TG” value in data set [5] (fasted overnight) is 0.94 ± 0.15 mmol/L. The compound also showed a Serum insulin in data set [5] (fasted overnight) of 2.2 ± 1.38 ng/mL. In data set [6] (30 mg/kg), the Food intake turned out to be 2.2 ± 5.0 g/day. Also, in data set [6] (individual animals, 30 mg/kg), the “weight after the drug was administrated for 28 days” value is 39.9 (2×) and 31.0 and 34.8 and 41.6 and 32.2 and 40.5 and 40.8 and 45.6 and 47.1 and 41.0.

Turning to `C[C@@H]1c2cnc(C(F)(F)F)n2CCN1C(=O)C[C@H](N)Cc1cc(F)c(F)cc1F` [phosphate crystal form A, (8R)-7-[(3R)-3-amino-1-oxo-4-(2,4,5-trifluorophenyl)butyl]-5,6,7,8-tetrahydro-8-methyl-3-(trifluoromethyl)imidazo[1,5-a]pyrazine], the “crystal form after heating (XRPD)” value in data set [7] is “transformed into a phosphate crystal form B”.
